{"source": "ChEMBL document CHEMBL1201862", "about": "“PubChem BioAssay data set” (2004)", "format_in_all_cases": "functional", "key": {"HEK293": {"system": "HEK293", "assay": "Fluorescence-based counterscreen for potentiators or agonists of NPY-Y2: cell-based high-throughput dose response assay to identify inhibitors of cyclic nucleotide gated ion channel (CNGC) activity. In this assay, the parental HEK293 cell line transfected with a cyclic-nucleotide gated ion channel (CNGC)-based cAMP sensor is used to measure inhibition of isoproterenol-induced CNGC activity by test compound.", "details": "Homo sapiens"}, "[1]": {"target": "Neuropeptide Y receptor type 2 (Homo sapiens, UniProt P49146)", "sequence (P49146 whole entry)": "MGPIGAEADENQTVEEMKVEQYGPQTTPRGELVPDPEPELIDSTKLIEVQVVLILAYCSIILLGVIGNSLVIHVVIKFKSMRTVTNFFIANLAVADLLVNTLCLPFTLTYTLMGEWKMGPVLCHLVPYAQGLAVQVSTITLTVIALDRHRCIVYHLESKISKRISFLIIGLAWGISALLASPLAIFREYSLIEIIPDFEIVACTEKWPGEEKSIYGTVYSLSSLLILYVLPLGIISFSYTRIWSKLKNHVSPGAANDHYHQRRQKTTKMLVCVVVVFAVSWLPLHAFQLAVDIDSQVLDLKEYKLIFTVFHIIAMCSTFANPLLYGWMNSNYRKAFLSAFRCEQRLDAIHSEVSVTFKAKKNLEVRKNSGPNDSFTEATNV", "assay": "Fluorescence-based cell-based high-throughput dose response assay for agonists of NPY-Y2. [Related pubchem assays: 1703 (Screening assay (CNGC inhibitors).), 1359 (Screening assay (NPY-Y2 potentiators or agonists).), 1304 (Screening assay (NPY-Y1 potentiators or agonists).), 1710 (Screening assay (NPY-Y2 agonists).), 1791 (Summary AID.)]"}, "[2]": {"target": "Neuropeptide Y receptor type 1 (Homo sapiens, UniProt P25929)", "sequence (P25929 whole entry)": "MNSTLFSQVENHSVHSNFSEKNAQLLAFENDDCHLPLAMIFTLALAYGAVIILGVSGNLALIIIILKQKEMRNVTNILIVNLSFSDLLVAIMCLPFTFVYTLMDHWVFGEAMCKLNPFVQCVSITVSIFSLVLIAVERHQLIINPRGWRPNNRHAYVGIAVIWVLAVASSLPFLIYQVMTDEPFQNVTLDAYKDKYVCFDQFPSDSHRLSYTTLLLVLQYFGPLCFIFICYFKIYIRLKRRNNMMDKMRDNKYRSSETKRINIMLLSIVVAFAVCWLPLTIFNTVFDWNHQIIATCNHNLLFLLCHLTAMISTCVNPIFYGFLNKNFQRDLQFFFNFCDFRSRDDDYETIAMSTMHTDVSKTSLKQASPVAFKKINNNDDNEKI", "assay": "Fluorescence-based counterscreen for agonists of NPY-Y2: cell-based high-throughput dose response assay for agonists of NPY-Y1."}, "[3]": {"assay": "HIV-1 Env-mediated cell fusion inhibitors, dose response, CCR5-tropic Env (AID 2279)"}, "[4]": {"target": "T1, High affinity choline transporter 1 (Homo sapiens, UniProt Q9GZV3)", "T1 sequence (Q9GZV3 whole entry)": "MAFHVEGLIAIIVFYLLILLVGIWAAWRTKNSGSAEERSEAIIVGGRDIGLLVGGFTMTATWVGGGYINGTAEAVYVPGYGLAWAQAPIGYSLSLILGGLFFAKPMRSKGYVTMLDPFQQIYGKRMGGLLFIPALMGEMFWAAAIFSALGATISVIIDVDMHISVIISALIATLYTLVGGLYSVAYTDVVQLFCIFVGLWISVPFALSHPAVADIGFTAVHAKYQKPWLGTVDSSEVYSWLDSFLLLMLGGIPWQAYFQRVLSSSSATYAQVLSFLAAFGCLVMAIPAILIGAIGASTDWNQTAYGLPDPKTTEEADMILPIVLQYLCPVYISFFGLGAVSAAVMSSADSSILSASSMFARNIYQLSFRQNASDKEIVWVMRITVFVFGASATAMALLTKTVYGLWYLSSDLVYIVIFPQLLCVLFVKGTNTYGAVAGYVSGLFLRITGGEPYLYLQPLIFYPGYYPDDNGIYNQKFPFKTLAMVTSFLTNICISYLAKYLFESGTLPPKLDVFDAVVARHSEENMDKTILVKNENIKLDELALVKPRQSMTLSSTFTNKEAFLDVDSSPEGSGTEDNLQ", "assay": "CHT inhibitors, dose response, cell-based, 10-point CRC, membrane potential dye (AID 588401);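 also: membrane potential dye fluorescence of choline-evoked depolarization via CHT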"}, "[5]": {"target": "T1, High affinity choline transporter 1", "assay": "CHT inhibitors, dose response, cell-based, 5-point CRC, membrane potential dye (AID 504840)"}, "[6]": {"target": "Peroxisome proliferator-activated receptor gamma/Nuclear receptor coactivator 2 (Homo sapiens, UniProt P37231)", "sequence (P37231 whole entry)": "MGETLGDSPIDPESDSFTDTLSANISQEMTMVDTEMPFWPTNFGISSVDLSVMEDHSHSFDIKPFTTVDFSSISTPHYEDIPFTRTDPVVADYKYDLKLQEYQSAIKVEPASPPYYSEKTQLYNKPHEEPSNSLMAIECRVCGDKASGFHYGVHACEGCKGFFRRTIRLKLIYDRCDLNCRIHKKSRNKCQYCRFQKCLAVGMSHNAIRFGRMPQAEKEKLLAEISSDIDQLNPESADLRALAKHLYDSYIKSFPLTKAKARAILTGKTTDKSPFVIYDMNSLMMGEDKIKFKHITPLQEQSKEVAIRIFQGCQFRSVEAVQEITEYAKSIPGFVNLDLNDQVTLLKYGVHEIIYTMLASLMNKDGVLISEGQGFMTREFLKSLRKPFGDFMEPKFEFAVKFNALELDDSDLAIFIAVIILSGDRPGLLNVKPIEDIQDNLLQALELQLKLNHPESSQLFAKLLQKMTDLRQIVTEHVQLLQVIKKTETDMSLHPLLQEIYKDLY", "sequence (Q15596 whole entry, further chain)": "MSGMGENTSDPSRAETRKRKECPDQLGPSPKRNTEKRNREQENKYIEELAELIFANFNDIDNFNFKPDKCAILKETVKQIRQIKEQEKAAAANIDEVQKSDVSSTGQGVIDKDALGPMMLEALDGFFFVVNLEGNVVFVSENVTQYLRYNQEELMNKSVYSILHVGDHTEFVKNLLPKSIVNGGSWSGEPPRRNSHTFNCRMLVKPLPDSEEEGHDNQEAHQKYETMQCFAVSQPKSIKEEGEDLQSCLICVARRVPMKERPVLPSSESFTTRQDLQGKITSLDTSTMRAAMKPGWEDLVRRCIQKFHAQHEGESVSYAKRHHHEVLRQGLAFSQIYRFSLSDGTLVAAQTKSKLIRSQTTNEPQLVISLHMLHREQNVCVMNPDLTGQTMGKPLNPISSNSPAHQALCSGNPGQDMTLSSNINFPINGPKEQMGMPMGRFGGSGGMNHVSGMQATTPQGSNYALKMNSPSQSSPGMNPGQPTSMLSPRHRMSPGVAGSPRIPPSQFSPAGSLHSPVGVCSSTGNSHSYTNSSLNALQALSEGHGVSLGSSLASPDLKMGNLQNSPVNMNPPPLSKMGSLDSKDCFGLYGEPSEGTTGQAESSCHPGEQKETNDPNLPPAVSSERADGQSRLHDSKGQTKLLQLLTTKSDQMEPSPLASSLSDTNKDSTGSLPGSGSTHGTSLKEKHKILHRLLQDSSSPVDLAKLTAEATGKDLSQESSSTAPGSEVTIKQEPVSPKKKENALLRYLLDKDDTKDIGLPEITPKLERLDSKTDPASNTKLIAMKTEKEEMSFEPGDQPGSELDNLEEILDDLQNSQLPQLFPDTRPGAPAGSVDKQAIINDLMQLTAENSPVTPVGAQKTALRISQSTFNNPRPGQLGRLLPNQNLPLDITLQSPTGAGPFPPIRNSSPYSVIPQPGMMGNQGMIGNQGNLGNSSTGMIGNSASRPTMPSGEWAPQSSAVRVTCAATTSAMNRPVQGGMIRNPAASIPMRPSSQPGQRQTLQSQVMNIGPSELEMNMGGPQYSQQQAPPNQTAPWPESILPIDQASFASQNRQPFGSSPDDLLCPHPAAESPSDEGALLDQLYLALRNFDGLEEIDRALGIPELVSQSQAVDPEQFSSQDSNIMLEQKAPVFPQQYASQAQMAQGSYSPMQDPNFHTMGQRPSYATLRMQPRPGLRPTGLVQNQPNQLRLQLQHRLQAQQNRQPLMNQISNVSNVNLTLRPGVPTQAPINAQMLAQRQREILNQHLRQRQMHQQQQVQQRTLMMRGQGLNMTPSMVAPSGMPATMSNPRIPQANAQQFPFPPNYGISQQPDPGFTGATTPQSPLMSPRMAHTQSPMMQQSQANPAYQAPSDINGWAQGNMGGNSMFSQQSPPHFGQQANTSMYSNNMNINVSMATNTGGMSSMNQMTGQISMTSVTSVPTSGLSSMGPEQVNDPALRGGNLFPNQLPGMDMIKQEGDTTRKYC"}, "[7]": {"target": "Peroxisome proliferator-activated receptor gamma/Nuclear receptor coactivator 3 (Homo sapiens, UniProt P37231)", "sequence (P37231 whole entry)": "as the sequence (P37231 whole entry) above", "sequence (Q9Y6Q9 whole entry, further chain)": "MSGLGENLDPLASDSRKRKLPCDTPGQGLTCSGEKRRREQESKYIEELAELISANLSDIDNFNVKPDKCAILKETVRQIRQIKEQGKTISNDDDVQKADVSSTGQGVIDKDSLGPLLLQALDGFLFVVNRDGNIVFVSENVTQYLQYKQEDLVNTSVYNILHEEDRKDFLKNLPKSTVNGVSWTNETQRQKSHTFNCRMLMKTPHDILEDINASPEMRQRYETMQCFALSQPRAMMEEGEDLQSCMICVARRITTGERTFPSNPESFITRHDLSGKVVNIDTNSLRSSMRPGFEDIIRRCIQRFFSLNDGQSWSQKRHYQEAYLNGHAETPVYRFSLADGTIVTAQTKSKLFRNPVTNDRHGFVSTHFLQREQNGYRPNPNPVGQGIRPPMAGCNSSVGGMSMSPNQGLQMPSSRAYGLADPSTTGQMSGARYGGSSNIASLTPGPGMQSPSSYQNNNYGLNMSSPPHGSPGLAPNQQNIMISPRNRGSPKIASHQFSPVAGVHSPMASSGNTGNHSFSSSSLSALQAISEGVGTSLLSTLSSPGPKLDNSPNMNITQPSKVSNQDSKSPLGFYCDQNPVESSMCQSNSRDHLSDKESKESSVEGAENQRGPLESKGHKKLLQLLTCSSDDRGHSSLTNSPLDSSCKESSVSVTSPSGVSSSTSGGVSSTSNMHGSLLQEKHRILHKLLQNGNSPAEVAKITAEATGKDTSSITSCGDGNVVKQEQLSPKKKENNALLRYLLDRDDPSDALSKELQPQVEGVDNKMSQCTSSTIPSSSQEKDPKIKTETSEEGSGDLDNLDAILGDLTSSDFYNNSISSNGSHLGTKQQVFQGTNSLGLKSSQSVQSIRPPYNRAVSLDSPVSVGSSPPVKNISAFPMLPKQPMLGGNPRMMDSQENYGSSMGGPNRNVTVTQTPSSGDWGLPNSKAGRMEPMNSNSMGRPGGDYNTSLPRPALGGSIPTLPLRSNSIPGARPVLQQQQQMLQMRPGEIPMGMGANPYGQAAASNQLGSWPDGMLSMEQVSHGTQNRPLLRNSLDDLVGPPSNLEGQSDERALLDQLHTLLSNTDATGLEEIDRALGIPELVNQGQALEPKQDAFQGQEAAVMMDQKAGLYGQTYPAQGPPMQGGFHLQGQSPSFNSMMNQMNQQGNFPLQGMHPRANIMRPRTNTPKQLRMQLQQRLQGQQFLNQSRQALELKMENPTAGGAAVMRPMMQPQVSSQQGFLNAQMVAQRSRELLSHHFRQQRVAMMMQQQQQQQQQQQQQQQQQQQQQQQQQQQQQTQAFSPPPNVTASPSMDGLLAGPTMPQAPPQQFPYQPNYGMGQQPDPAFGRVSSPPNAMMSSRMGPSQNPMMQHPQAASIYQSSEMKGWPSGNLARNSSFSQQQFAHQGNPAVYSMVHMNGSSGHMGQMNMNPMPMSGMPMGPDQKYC"}, "[8]": {"target": "Peroxisome proliferator-activated receptor gamma/Nuclear receptor coactivator 1 (Homo sapiens, UniProt P37231)"}}, "note": "Calls of active or inactive are those of the source. Rule as the data show it, for most assays here: active = EC50 of 10 µM or less and inactive = more.", "data": [{"compound": "COc1ccc(Cn2cnc3c(NS(C)(=O)=O)c(C)c(C)cc32)cc1", "values": [{"measurement": "EC50", "setting": "HEK293", "value": "> 35.4 µM (not active)"}, {"measurement": "EC50", "setting": "[1]", "value": "> 35.4 µM (not active)"}, {"measurement": "EC50", "setting": "[2]", "value": "19.3 µM (not active)"}]}, {"compound": "CCS(=O)(=O)C1=NSC2=NC(=O)/C(=C\\c3ccc(OS(=O)(=O)c4ccccc4)cc3)C(=N)N21", "values": [{"measurement": "IC50", "setting": "[3]", "value": "36.5 µM (active)"}, {"measurement": "IC50", "setting": "[4]", "value": "8.91 µM (active)"}, {"measurement": "IC50", "setting": "[5]", "value": "5.22 µM (active)"}]}, {"compound": "O=C(NC(=S)Nc1ccccc1)c1ccc(Br)o1", "values": [{"measurement": "EC50", "setting": "[6]", "value": "16 µM (not active)"}, {"measurement": "EC50", "setting": "[7]", "value": "19.9 µM (not active)"}, {"measurement": "EC50", "setting": "[8]", "value": "17.6 µM (not active)"}]}]}
